Assay results as given in the NIST ThermoML archive (doi:10.1016/j.jct.2017.01.016).

Assay: xn = mol fraction of the nth substance listed
Conditions: 101 kPa, Liquid; for viscosity: Capillary tube (Ostwald / Ubbelohde) method; for speed of sound: Frequency=3 MHz, Linear variable-path acoustic interferometer

Cc1cc(C)cc(C)c1 [1,3,5-trimethylbenzene] + C1COCCO1
Conditions | speed of sound [m/s] | viscosity [mPa·s]
293.15 K, x2 = 0 | 1360.4 | 0.7056
293.15 K, x2 = 0.0696 | 1354.2 | 0.7332
293.15 K, x2 = 0.1408 | 1348.2 | 0.7648
293.15 K, x2 = 0.2098 | 1342.8 | 0.7974
293.15 K, x2 = 0.28 | 1337.8 | 0.8326
293.15 K, x2 = 0.3558 | 1333.1 | 0.8728
293.15 K, x2 = 0.4276 | 1329.3 | 0.9131
293.15 K, x2 = 0.5066 | 1326.5 | 0.9597
293.15 K, x2 = 0.5801 | 1325 | 1.005
293.15 K, x2 = 0.6548 | 1325.4 | 1.054
293.15 K, x2 = 0.7227 | 1327.5 | 1.099
293.15 K, x2 = 0.7936 | 1332 | 1.149
293.15 K, x2 = 0.8663 | 1340 | 1.202
293.15 K, x2 = 0.9319 | 1351 | 1.252
298.15 K, x2 = 0 | 1339.8 | 0.6592
298.15 K, x2 = 0.0696 | 1333.4 | 0.6835
298.15 K, x2 = 0.1408 | 1327.5 | 0.7112
298.15 K, x2 = 0.2098 | 1322.1 | 0.7398
298.15 K, x2 = 0.28 | 1317.1 | 0.7712
298.15 K, x2 = 0.3558 | 1312.5 | 0.8066
298.15 K, x2 = 0.4276 | 1308.9 | 0.8422
298.15 K, x2 = 0.5066 | 1306 | 0.8838
298.15 K, x2 = 0.5801 | 1304.5 | 0.9244
298.15 K, x2 = 0.6548 | 1304.7 | 0.9678
298.15 K, x2 = 0.7227 | 1306.5 | 1.009
298.15 K, x2 = 0.7936 | 1310.8 | 1.053
298.15 K, x2 = 0.8663 | 1318.5 | 1.101
298.15 K, x2 = 0.9319 | 1329 | 1.146
303.15 K, x2 = 0 | 1319.6 | 0.6188
303.15 K, x2 = 0.0696 | 1313.2 | 0.6405
303.15 K, x2 = 0.1408 | 1307.3 | 0.6646
303.15 K, x2 = 0.2098 | 1301.9 | 0.6896
303.15 K, x2 = 0.28 | 1297.1 | 0.7168
303.15 K, x2 = 0.3558 | 1292.5 | 0.7483
303.15 K, x2 = 0.4276 | 1288.9 | 0.78
303.15 K, x2 = 0.5066 | 1286 | 0.8167
303.15 K, x2 = 0.5801 | 1284.5 | 0.8532
303.15 K, x2 = 0.6548 | 1284.6 | 0.8918
303.15 K, x2 = 0.7227 | 1286.4 | 0.9287
303.15 K, x2 = 0.7936 | 1290.3 | 0.9688
303.15 K, x2 = 0.8663 | 1297.6 | 1.012
303.15 K, x2 = 0.9319 | 1307.8 | 1.052
308.15 K, x2 = 0 | 1300.2 | 0.5792
308.15 K, x2 = 0.0696 | 1294 | 0.5994
308.15 K, x2 = 0.1408 | 1287.9 | 0.6212
308.15 K, x2 = 0.2098 | 1282.6 | 0.6438
308.15 K, x2 = 0.28 | 1277.6 | 0.6685
308.15 K, x2 = 0.3558 | 1273 | 0.6966
308.15 K, x2 = 0.4276 | 1269.2 | 0.7253
308.15 K, x2 = 0.5066 | 1266.3 | 0.7589
308.15 K, x2 = 0.5801 | 1264.6 | 0.7918
308.15 K, x2 = 0.6548 | 1264.7 | 0.8274
308.15 K, x2 = 0.7227 | 1266.2 | 0.8612
308.15 K, x2 = 0.7936 | 1270 | 0.8982
308.15 K, x2 = 0.8663 | 1277 | 0.9376
308.15 K, x2 = 0.9319 | 1286.7 | 0.9752
313.15 K, x2 = 0 | 1280.4 | 0.5422
313.15 K, x2 = 0.0696 | 1274.3 | 0.5609
313.15 K, x2 = 0.1408 | 1268.3 | 0.5813
313.15 K, x2 = 0.2098 | 1262.9 | 0.6022
313.15 K, x2 = 0.28 | 1258 | 0.6248
313.15 K, x2 = 0.3558 | 1253.3 | 0.651
313.15 K, x2 = 0.4276 | 1249.6 | 0.6774
313.15 K, x2 = 0.5066 | 1246.4 | 0.7084
313.15 K, x2 = 0.5801 | 1244.7 | 0.7391
313.15 K, x2 = 0.6548 | 1244.6 | 0.7717
313.15 K, x2 = 0.7227 | 1246.1 | 0.8032
313.15 K, x2 = 0.7936 | 1249.9 | 0.8372
313.15 K, x2 = 0.8663 | 1256.5 | 0.874
313.15 K, x2 = 0.9319 | 1265.7 | 0.9088
318.15 K, x2 = 0 | 1263 | 0.5066
318.15 K, x2 = 0.0696 | 1256.9 | 0.5246
318.15 K, x2 = 0.1408 | 1250.8 | 0.5436
318.15 K, x2 = 0.2098 | 1245.3 | 0.5634
318.15 K, x2 = 0.28 | 1240.3 | 0.5846
318.15 K, x2 = 0.3558 | 1235.4 | 0.6092
318.15 K, x2 = 0.4276 | 1231.5 | 0.6342
318.15 K, x2 = 0.5066 | 1228.3 | 0.6632
318.15 K, x2 = 0.5801 | 1226.4 | 0.692
318.15 K, x2 = 0.6548 | 1226 | 0.7224
318.15 K, x2 = 0.7227 | 1227.1 | 0.7515
318.15 K, x2 = 0.7936 | 1230.5 | 0.7836
318.15 K, x2 = 0.8663 | 1236.7 | 0.8178
318.15 K, x2 = 0.9319 | 1245.3 | 0.8501

Cc1ccc(C)cc1 [1,4-dimethylbenzene] + C1COCCO1
Conditions | speed of sound [m/s] | viscosity [mPa·s]
293.15 K, x2 = 0 | 1328.4 | 0.6505
293.15 K, x2 = 0.0716 | 1326.1 | 0.6921
293.15 K, x2 = 0.1445 | 1324.1 | 0.7358
293.15 K, x2 = 0.2132 | 1322.7 | 0.7779
293.15 K, x2 = 0.2871 | 1321.7 | 0.8239
293.15 K, x2 = 0.3582 | 1321.3 | 0.8691
293.15 K, x2 = 0.4358 | 1321.6 | 0.9192
293.15 K, x2 = 0.5042 | 1322.7 | 0.964
293.15 K, x2 = 0.5846 | 1325 | 1.018
293.15 K, x2 = 0.6543 | 1328.1 | 1.065
293.15 K, x2 = 0.7249 | 1332.5 | 1.113
293.15 K, x2 = 0.7923 | 1338.1 | 1.159
293.15 K, x2 = 0.8623 | 1345.6 | 1.208
293.15 K, x2 = 0.9311 | 1355.2 | 1.257
298.15 K, x2 = 0 | 1307.4 | 0.6115
298.15 K, x2 = 0.0716 | 1305.1 | 0.6484
298.15 K, x2 = 0.1445 | 1303.2 | 0.6871
298.15 K, x2 = 0.2132 | 1301.9 | 0.7245
298.15 K, x2 = 0.2871 | 1300.9 | 0.7654
298.15 K, x2 = 0.3582 | 1300.5 | 0.8054
298.15 K, x2 = 0.4358 | 1300.8 | 0.8499
298.15 K, x2 = 0.5042 | 1301.8 | 0.8898
298.15 K, x2 = 0.5846 | 1304 | 0.9374
298.15 K, x2 = 0.6543 | 1307 | 0.9792
298.15 K, x2 = 0.7249 | 1311.2 | 1.022
298.15 K, x2 = 0.7923 | 1316.6 | 1.064
298.15 K, x2 = 0.8623 | 1323.9 | 1.107
298.15 K, x2 = 0.9311 | 1333.1 | 1.151
303.15 K, x2 = 0 | 1287.3 | 0.5766
303.15 K, x2 = 0.0716 | 1285.1 | 0.6095
303.15 K, x2 = 0.1445 | 1283.2 | 0.644
303.15 K, x2 = 0.2132 | 1281.9 | 0.677
303.15 K, x2 = 0.2871 | 1280.9 | 0.7133
303.15 K, x2 = 0.3582 | 1280.5 | 0.7488
303.15 K, x2 = 0.4358 | 1280.8 | 0.7884
303.15 K, x2 = 0.5042 | 1281.8 | 0.8239
303.15 K, x2 = 0.5846 | 1283.9 | 0.8663
303.15 K, x2 = 0.6543 | 1286.8 | 0.9037
303.15 K, x2 = 0.7249 | 1290.8 | 0.9422
303.15 K, x2 = 0.7923 | 1296 | 0.9792
303.15 K, x2 = 0.8623 | 1303 | 1.018
303.15 K, x2 = 0.9311 | 1311.9 | 1.057
308.15 K, x2 = 0 | 1267.6 | 0.544
308.15 K, x2 = 0.0716 | 1265.4 | 0.5737
308.15 K, x2 = 0.1445 | 1263.6 | 0.605
308.15 K, x2 = 0.2132 | 1262.2 | 0.635
308.15 K, x2 = 0.2871 | 1261.2 | 0.6677
308.15 K, x2 = 0.3582 | 1260.8 | 0.6999
308.15 K, x2 = 0.4358 | 1261 | 0.7358
308.15 K, x2 = 0.5042 | 1261.8 | 0.768
308.15 K, x2 = 0.5846 | 1263.8 | 0.8064
308.15 K, x2 = 0.6543 | 1266.5 | 0.8403
308.15 K, x2 = 0.7249 | 1270.4 | 0.875
308.15 K, x2 = 0.7923 | 1275.4 | 0.9086
308.15 K, x2 = 0.8623 | 1282 | 0.9441
308.15 K, x2 = 0.9311 | 1290.5 | 0.9791
313.15 K, x2 = 0 | 1248.3 | 0.5132
313.15 K, x2 = 0.0716 | 1246.2 | 0.5407
313.15 K, x2 = 0.1445 | 1244.3 | 0.5693
313.15 K, x2 = 0.2132 | 1242.9 | 0.5968
313.15 K, x2 = 0.2871 | 1241.9 | 0.6269
313.15 K, x2 = 0.3582 | 1241.4 | 0.6565
313.15 K, x2 = 0.4358 | 1241.6 | 0.6894
313.15 K, x2 = 0.5042 | 1242.3 | 0.7189
313.15 K, x2 = 0.5846 | 1244.1 | 0.7542
313.15 K, x2 = 0.6543 | 1246.7 | 0.7853
313.15 K, x2 = 0.7249 | 1250.3 | 0.8172
313.15 K, x2 = 0.7923 | 1255 | 0.8479
313.15 K, x2 = 0.8623 | 1261.4 | 0.8802
313.15 K, x2 = 0.9311 | 1269.5 | 0.9126
318.15 K, x2 = 0 | 1229.8 | 0.4862
318.15 K, x2 = 0.0716 | 1227.7 | 0.5116
318.15 K, x2 = 0.1445 | 1225.8 | 0.538
318.15 K, x2 = 0.2132 | 1224.4 | 0.5633
318.15 K, x2 = 0.2871 | 1223.3 | 0.5911
318.15 K, x2 = 0.3582 | 1222.8 | 0.6185
318.15 K, x2 = 0.4358 | 1222.8 | 0.6488
318.15 K, x2 = 0.5042 | 1223.4 | 0.676
318.15 K, x2 = 0.5846 | 1225 | 0.7084
318.15 K, x2 = 0.6543 | 1227.4 | 0.737
318.15 K, x2 = 0.7249 | 1230.8 | 0.7663
318.15 K, x2 = 0.7923 | 1235.2 | 0.7946
318.15 K, x2 = 0.8623 | 1241.3 | 0.8244
318.15 K, x2 = 0.9311 | 1248.9 | 0.854
